For six molecules, Activity, inhibition and IC50 results are on record in ChEMBL document CHEMBL4725259 (Bioorg Med Chem, 2020).

Activity calls are given as the source filed them. The rule behind the calls is not given here.

Experiment [1] addresses T1, CX3C chemokine receptor 1 (Homo sapiens) (UniProt P49238).
T1 sequence (whole entry): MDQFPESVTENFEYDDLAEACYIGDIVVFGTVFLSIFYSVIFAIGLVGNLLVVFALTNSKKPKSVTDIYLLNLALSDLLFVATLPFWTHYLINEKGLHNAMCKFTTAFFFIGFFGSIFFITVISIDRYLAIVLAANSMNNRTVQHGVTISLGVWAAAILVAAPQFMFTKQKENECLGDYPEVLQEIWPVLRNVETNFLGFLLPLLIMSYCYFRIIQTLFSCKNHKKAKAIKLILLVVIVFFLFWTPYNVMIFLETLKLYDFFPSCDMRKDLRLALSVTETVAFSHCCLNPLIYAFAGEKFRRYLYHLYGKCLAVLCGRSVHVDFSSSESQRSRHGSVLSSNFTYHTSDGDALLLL
Kind of experiment: Agonist activity at human CX3CR1 expressed in CHO-K1 cells at 20 uM by PathHunter beta-arrestin assay relative to control. It is filed as cell-based.

Experiment [2] addresses T2, Vasopressin V2 receptor (Homo sapiens, UniProt P30518). The experiment is described as follows: Agonist activity at human AVPR2 at 20 uM by PathHunter beta-arrestin assay relative to control.
Experiment [3] addresses T3, C-C chemokine receptor type 3 (Homo sapiens) (UniProt P51677).
T3 sequence (whole entry): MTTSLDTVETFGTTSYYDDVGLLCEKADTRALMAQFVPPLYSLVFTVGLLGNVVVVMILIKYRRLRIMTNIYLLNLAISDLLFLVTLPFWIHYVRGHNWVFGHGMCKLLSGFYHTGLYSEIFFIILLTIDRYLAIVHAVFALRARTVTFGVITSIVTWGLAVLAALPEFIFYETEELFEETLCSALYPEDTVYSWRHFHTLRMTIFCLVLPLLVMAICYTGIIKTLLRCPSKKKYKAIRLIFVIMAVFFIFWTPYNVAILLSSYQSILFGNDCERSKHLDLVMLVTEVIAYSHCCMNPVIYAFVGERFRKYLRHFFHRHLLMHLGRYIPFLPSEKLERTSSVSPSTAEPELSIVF
Kind of experiment: Agonist activity at human CCR3 expressed in CHO-K1 cells at 20 uM by PathHunter beta-arrestin assay relative to control. It is filed as cell-based.

Experiment [4] concerns the target T4, C-X-C chemokine receptor type 4 (Homo sapiens, UniProt P61073). The experiment is described as follows: Antagonist activity at human CXCR4 expressed in mouse C2C12 cells at 20 uM by PathHunter beta-arrestin assay relative to control. It is filed as cell-based. The note with it: filed as antagonist.
Experiment [5] deals with T5, Oxytocin receptor (Homo sapiens) (UniProt P30559).
T5 sequence (whole entry): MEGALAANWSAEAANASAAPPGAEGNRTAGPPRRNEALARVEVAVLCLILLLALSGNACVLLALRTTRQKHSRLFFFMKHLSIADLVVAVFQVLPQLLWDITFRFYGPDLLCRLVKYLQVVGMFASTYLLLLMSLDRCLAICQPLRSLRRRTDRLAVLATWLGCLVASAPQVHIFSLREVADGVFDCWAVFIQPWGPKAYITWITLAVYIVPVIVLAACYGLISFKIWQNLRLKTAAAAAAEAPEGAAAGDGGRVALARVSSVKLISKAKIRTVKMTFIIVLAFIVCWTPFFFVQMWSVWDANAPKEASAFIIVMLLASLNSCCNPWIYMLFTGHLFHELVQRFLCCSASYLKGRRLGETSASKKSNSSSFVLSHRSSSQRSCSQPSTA
Kind of experiment: Antagonist activity at human OXTR expressed in CHO-K1 cells at 20 uM by PathHunter beta-arrestin assay relative to control. It is filed as cell-based.

The target in experiment [6] is T1, CX3C chemokine receptor 1 (Homo sapiens). The experiment is described as follows: Antagonist activity at human CX3CR1 expressed in CHO-K1 cells at 20 uM by PathHunter beta-arrestin assay relative to control. It is filed as cell-based. The settings on record: filed as antagonist.
Experiment [7] has as its system U2OS. The experiment is described as follows: Antagonist activity at NPSR1B in human U2OS cells at 20 uM by PathHunter beta-arrestin assay relative to control. It is filed as cell-based.
Experiment [8] concerns the target T6, Follicle-stimulating hormone receptor (Homo sapiens) (UniProt P23945).
T6 sequence (whole entry): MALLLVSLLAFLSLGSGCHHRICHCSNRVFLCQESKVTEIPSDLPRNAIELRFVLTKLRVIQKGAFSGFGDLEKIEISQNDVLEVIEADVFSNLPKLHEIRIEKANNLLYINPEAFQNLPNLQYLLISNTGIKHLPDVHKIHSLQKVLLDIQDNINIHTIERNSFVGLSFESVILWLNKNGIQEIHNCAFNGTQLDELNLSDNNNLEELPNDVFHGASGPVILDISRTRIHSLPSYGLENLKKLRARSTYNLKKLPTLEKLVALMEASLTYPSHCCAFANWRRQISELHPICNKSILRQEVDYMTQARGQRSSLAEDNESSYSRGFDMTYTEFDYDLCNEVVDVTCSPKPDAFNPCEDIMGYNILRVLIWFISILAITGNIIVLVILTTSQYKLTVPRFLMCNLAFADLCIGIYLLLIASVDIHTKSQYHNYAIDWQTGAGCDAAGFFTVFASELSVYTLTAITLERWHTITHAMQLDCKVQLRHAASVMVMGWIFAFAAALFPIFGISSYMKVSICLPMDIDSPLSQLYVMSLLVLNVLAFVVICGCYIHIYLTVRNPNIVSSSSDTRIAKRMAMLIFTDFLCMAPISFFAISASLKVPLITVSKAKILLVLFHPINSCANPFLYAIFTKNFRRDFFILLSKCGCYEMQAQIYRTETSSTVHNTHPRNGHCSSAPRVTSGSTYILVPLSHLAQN
Kind of experiment: Antagonist activity at human FSHR expressed in CHO-K1 cells at 20 uM by PathHunter beta-arrestin assay relative to control. The experiment is classed as cell-based. The note with it: filed as antagonist.

For experiment [9], the target named is T7, C-C chemokine receptor type 8 (Homo sapiens, UniProt P51685). The experiment is described as follows: Antagonist activity at human CCR8 expressed in CHO-K1 cells at 20 uM by PathHunter beta-arrestin assay relative to control. The experiment is classed as cell-based. The settings on record: filed as antagonist.
Experiment [10] deals with T8, Prolactin-releasing peptide receptor (Homo sapiens) (UniProt P49683).
T8 sequence (whole entry): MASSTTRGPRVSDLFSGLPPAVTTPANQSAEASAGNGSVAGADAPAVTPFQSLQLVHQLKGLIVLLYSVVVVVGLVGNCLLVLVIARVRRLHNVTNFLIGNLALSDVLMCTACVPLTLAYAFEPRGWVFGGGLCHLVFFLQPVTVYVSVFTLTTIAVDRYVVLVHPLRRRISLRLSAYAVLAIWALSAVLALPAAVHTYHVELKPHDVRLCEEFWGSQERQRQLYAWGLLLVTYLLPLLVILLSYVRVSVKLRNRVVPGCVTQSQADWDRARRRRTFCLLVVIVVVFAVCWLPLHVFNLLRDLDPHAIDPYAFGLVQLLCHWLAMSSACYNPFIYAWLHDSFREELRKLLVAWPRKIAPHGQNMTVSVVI
Kind of experiment: Agonist activity at human PRLHR expressed in CHO-K1 cells at 20 uM by PathHunter beta-arrestin assay relative to control. The experiment is classed as cell-based.

Experiment [11] concerns the target T7, C-C chemokine receptor type 8. Kind of experiment: Agonist activity at human CCR8 expressed in CHO-K1 cells at 20 uM by PathHunter beta-arrestin assay relative to control. It is filed as cell-based.
For experiment [12], the target named is T2, Vasopressin V2 receptor. Kind of experiment: Antagonist activity at human AVPR2 at 20 uM by PathHunter beta-arrestin assay relative to control.
The target of experiment [13] is D(2) dopamine receptor (Homo sapiens) (UniProt P14416). Kind of experiment: Antagonist activity at human DRD2L expressed in CHO-K1 cells at 20 uM by PathHunter beta-arrestin assay relative to control. The experiment is classed as cell-based.
For experiment [14], the target named is T5, Oxytocin receptor (Homo sapiens). The experiment is described as follows: Agonist activity at human OXTR expressed in CHO-K1 cells at 20 uM by PathHunter beta-arrestin assay relative to control. It is filed as cell-based.
For experiment [15], the target named is T3, C-C chemokine receptor type 3 (Homo sapiens). The experiment is described as follows: Antagonist activity at human CCR3 expressed in CHO-K1 cells at 20 uM by PathHunter beta-arrestin assay relative to control. It is filed as cell-based.
Experiment [16] deals with U2OS. Kind of experiment: Agonist activity at NPSR1B in human U2OS cells at 20 uM by PathHunter beta-arrestin assay relative to control. It is filed as cell-based.
In experiment [17] the target is T4, C-X-C chemokine receptor type 4. The experiment is described as follows: Agonist activity at human CXCR4 expressed in mouse C2C12 cells at 20 uM by PathHunter beta-arrestin assay relative to control. The experiment is classed as cell-based.
Experiment [18] deals with D(2) dopamine receptor (Homo sapiens) (UniProt P14416). Kind of experiment: Agonist activity at human DRD2L expressed in CHO-K1 cells at 20 uM by PathHunter beta-arrestin assay relative to control. It is filed as cell-based.
Experiment [19] deals with T6, Follicle-stimulating hormone receptor (Homo sapiens). Kind of experiment: Agonist activity at human FSHR expressed in CHO-K1 cells at 20 uM by PathHunter beta-arrestin assay relative to control. The experiment is classed as cell-based.
The target of experiment [20] is T8, Prolactin-releasing peptide receptor (Homo sapiens). The experiment is described as follows: Antagonist activity at human PRLHR expressed in CHO-K1 cells at 20 uM by PathHunter beta-arrestin assay relative to control. It is filed as cell-based. The settings on record: filed as antagonist.
The target in experiment [21] is T9, Oxytocin receptor (Homo sapiens, UniProt P30559).
T9 sequence (P30559 whole entry): T5 sequence (whole entry)
The experiment is described as follows: Antagonist activity at human OXTR expressed in CHO-K1 cells by PathHunter beta-arrestin assay. It is filed as cell-based.

T7 sequence (P51685 whole entry): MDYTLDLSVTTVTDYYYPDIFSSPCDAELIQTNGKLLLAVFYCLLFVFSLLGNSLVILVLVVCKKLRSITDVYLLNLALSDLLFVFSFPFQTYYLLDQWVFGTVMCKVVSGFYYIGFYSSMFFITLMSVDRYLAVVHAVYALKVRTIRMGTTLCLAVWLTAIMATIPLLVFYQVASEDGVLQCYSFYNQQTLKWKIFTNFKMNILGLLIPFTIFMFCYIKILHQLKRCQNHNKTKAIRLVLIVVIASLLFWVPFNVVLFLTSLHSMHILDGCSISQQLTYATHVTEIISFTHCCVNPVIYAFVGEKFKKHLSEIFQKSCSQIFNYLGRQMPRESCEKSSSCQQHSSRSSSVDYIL
T4 sequence (P61073 whole entry): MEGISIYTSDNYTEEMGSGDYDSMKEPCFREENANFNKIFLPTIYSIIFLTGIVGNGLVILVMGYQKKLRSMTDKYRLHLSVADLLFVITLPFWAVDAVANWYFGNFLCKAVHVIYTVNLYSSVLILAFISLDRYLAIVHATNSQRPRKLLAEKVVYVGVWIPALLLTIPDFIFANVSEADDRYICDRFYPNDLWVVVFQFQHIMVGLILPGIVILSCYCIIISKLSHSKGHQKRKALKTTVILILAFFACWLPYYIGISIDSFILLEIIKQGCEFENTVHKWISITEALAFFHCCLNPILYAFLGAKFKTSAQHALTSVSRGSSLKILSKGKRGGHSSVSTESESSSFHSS
T2 sequence (P30518 whole entry): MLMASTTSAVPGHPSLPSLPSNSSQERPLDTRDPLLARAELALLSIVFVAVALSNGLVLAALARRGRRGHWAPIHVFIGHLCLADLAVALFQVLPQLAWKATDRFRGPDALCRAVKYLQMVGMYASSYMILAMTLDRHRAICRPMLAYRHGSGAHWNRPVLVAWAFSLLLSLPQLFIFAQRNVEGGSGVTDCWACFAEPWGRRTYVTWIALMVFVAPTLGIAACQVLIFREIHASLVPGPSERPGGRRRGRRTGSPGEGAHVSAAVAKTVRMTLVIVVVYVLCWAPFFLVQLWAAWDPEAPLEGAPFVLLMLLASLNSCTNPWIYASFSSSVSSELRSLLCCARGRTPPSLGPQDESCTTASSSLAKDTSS
D(2) dopamine receptor (Homo sapiens), sequence (P14416 whole entry): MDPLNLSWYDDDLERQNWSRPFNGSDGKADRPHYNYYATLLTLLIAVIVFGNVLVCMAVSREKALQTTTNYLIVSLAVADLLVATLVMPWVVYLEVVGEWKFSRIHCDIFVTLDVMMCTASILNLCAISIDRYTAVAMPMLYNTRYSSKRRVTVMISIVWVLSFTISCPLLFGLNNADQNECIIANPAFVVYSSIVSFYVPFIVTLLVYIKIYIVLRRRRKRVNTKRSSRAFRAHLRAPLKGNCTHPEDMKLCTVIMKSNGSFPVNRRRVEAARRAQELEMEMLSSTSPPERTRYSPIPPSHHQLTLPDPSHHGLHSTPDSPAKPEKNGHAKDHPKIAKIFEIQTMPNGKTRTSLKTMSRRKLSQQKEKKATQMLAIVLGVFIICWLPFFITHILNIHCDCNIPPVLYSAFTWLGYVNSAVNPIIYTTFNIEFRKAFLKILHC

As a reminder, the inhibition is the relative decrease from the control value, in per cent. As to `COC(=O)[C@@H]1[C@H]2C[C@H]3OCc4ccccc4-n4c3c(c3ccccc34)CCN(C#N)C[C@@H]2CC[C@@H]1O`, the result in experiment [1], in [2], in [3], in experiment [10], in experiment [11] and in [14] was inactive. For the same molecule, the outcome in [16], in experiment [17], in [18] and in experiment [19] was inactive. The inhibition in [4] came out at 10%; in experiment [5] it was 0%; in [6], 9%; in experiment [7] (filed as antagonist), 1%; in experiment [8] it was 12%; in experiment [9], 10%. Moreover, the inhibition was -1% in experiment [12], -2% in experiment [13] and -2% in [15].

For `COC(=O)[C@@H]1[C@H]2C[C@@H]([C@@]3(CCn4cc(CCCCO)nn4)C(=O)Nc4ccccc43)N(C#N)C[C@@H]2CC[C@@H]1O`, the outcome in experiment [1], in experiment [2], in [3], in experiment [10], in experiment [11] and in experiment [14] was inactive. The outcome in experiment [16], in [17], in experiment [18] and in experiment [19] was inactive. Moreover, the inhibition came out at 0% in experiment [5]; 11% in experiment [6]; 9% in [20]; 2% in [8]; 5% in experiment [9]; 1% in experiment [12] (filed as antagonist).

With `COC(=O)[C@@H]1[C@H]2C[C@@H]3N(CC[C@@]34C(=O)N(c3cncc(OC)n3)c3ccccc34)C[C@@H]2CC[C@@H]1O`, the result in experiment [1], in experiment [2], in experiment [3], in experiment [10], in experiment [11] and in experiment [14] was inactive. The outcome in [16], in experiment [17], in [18] and in experiment [19] was inactive. The inhibition is 9% in experiment [6]; 2% in experiment [20]; 11% in experiment [8]; 9% in experiment [9]; 9% in [12] (filed as antagonist); -8% in [13]. Also, in experiment [15], the inhibition was -7%.

With `COC(=O)[C@@H]1[C@H]2C[C@H]3c4[nH]c5ccccc5c4CCN3C[C@@H]2CC[C@@H]1O`, the result in experiment [1], in [2], in experiment [3], in [10], in [11] and in [14] was inactive. In addition, the result in experiment [16], in experiment [17], in experiment [18] and in experiment [19] was inactive. Besides, the inhibition in experiment [5] (filed as antagonist) is 5%; in [6], 22%; in experiment [7], -3%; in experiment [8] it was 4%; in [12] it was -1%.

The term IC50 denotes the concentration that inhibits the measured activity by half. Low readings indicate greater potency, high ones weaker potency. In [21], `Cc1ccccc1N1CCN(S(=O)(=O)CC23CCC(C[C@@H]2NC(=O)[C@@H](N)CCS(C)(=O)=O)C3(C)C)CC1` (stereo partly specified) returned an IC50 of 4.62 nM.

For the molecule `COC(=O)[C@@H]1[C@H]2C[C@@H]3OCc4ccccc4-n4c3c(c3ccccc34)CCN(C#N)C[C@@H]2CC[C@@H]1O`, the result in experiment [1], in experiment [2], in experiment [3], in [10], in experiment [11] and in experiment [14] was inactive. In addition, the outcome in experiment [16], in [17], in experiment [18] and in experiment [19] was inactive. Also, the inhibition was 27% in experiment [5] (filed as antagonist); 20% in experiment [6]; 5% in [20]; 5% in experiment [8]; 15% in experiment [9]; 16% in [12] (filed as antagonist). Besides, the inhibition in [13] (filed as antagonist) amounted to 3%; in experiment [15] (filed as antagonist) it was 2%.
